Source: patent US9371265B2, “Compositions and methods related to inhibitors of JAK kinase” (EP PHARMA, INC., priority 2012, dated 2016)

What was measured:
KIT(V559D, T670I) = KIT(V559D, T670I) (Homo sapiens, UniProt P10721, T670I/V559D); assay: Kinase panel: KIT(V559D, T670I); type: biochemical; details: 10 μM EP009
Protocol: (§1) Achieving JAK3 selectivity remains a significant challenge in the development of new small molecules for the treatment of cancer and immune-derived diseases. As such, the inventors employed cell-based screening assays of small-molecule libraries based upon the chemical scaffold of the established JAK3 inhibitor NC1153 (Stepkowski et al., J Immunol. (2005), 175(7):4236-4246) EP009 (FIG. 2A) was selected as a lead compound due to improved intrinsic stability (>95% purity in various solvents at 37° C. for 24 hours; FIG. 3) and high-degree of JAK3 selectivity. To test JAK3 versus JAK2 specificity of EP009, the IL-2/JAK3-dependent Kit225, and IL-3/JAK2-dependent BaF/3 cell lines were used. Kit225 and BaF/3 cells growing in the presence of IL-2 or IL-3, respectively, were treated with ascending concentrations of EP009 for 12 hours and cellular JAK3 and JAK2 tyrosine phosphorylation levels detected by Western blot analysis (FIGS. 2B and 2C). Following densitometric analysis, EP009 was determined to dose-dependently reduce IL-2-mediated JAK3 tyrosine phosphorylation with a cellular 50% inhibitory concentration (IC50) between 10 and 20 μM (FIG. 2B). […] To globally evaluate specificity, the inhibitory activity of EP009 was measured against a panel of protein kinases distributed throughout the kinome using the scanEDGE profiling service (KINOMEscan). […]

ABL1-phosphorylated = ABL1-phosphorylated (Homo sapiens, UniProt P00519); assay: Kinase panel: ABL1-phosphorylated; type: biochemical; details: 10 μM EP009
Protocol: as §1

[1] = Stability in mouse plasma (LC-MS/MS); type: in vitro ADME; details: indicated concentrations and incubation time points
Protocol: FIG. 11 illustrates the dose-dependent effect of (FIG. 11A) freshly prepared EP-009(P) and (FIG. 11B) EP-009(P) stored in aqueous conditions for 48 hr at room temperature on IL-2/JAK3-dependent Kit225 cell viability. FIG. 12 illustrates LC-MS/MS detection of EP-009 (5 ng/ml) in mouse plasma at a retention time of 1.91 min.

HEK293 = HEK293 cell viability (MTS); type: cell-based, human; details: 72 hours, concentrations giving complete loss of JAK3-dependent cell viability (0-10 μM)
Protocol: FIGS. 2A-2F. Selective inhibition of JAK3 by EP009 results in loss of JAK3-dependent tumor cell line viability with no detectable off-target effects in key cell types. (A) Chemical structure of EP009 (M.W. 224.34). (B) Kit225 or (C) BaF/3 cells cultured in the presence of IL-2 or IL-3, respectively, were treated with vehicle (PBS; lane a) or increasing amounts of EP009 (0-50 μM; lanes b-h) for 12 hours. Cells were then lysed, clarified, and immunoprecipitated (IP) with anti-JAK3 (α-JAK3) or anti-JAK2 (α-JAK2), and subjected to Western blot (WB) analysis with anti-phosphotyrosine (α-pY). Blots were stripped and reprobed with corresponding antibody to verify equivalent protein loading. […] (E) Kit225 or BaF/3 cells were cultured with increasing amounts of EP009 (0-10 μM) for 72 hours and cell viability measured with the MTS tetrazolium salt assay. Values represent mean absorbance (OD490-OD650 nm) normalized to vehicle (PBS) treated control cells, while error bars represent the standard deviation (n=3). (F) HEK293, HEPG2, or naïve primary human PBMCs were cultured with increasing amounts of EP009 (0-10 μM) for 72 hours and cell viability measured with the MTS tetrazolium salt assay. Values represent mean absorbance (OD490-OD650 nm) normalized to vehicle (PBS) treated control cells, while error bars represent the standard deviation (n=3). […]

ACVR1B = ACVR1B (Homo sapiens, UniProt P36896); assay: Kinase panel: ACVR1B; type: biochemical; details: 10 μM EP009
Protocol: as §1

KIT(V559D, T670I), sequence (P10721 26-976 V559D/T670I): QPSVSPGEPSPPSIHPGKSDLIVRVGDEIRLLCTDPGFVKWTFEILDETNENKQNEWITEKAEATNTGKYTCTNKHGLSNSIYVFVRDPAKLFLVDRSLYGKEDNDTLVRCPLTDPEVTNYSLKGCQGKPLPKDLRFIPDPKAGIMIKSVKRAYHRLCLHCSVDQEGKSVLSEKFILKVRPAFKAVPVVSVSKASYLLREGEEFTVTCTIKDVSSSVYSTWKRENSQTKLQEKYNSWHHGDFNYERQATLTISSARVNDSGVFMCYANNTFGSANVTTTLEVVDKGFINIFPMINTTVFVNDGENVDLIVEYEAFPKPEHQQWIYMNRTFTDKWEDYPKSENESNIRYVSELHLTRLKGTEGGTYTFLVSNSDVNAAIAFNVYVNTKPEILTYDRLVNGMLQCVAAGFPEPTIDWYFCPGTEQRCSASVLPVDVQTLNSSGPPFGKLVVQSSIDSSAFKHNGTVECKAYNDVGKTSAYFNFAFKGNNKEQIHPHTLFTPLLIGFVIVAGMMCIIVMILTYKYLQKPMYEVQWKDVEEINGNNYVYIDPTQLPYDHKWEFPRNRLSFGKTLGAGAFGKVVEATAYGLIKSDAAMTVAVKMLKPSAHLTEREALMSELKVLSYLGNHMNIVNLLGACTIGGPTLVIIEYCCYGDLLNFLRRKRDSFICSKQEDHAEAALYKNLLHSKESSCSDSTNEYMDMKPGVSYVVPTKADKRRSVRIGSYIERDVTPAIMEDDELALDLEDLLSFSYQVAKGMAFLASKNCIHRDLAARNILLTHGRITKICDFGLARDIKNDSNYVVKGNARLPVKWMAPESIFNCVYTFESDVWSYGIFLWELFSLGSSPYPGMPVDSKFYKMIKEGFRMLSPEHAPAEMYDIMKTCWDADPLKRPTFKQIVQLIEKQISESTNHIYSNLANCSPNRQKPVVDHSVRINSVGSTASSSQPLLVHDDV
ACVR1B, sequence (P36896 24-505): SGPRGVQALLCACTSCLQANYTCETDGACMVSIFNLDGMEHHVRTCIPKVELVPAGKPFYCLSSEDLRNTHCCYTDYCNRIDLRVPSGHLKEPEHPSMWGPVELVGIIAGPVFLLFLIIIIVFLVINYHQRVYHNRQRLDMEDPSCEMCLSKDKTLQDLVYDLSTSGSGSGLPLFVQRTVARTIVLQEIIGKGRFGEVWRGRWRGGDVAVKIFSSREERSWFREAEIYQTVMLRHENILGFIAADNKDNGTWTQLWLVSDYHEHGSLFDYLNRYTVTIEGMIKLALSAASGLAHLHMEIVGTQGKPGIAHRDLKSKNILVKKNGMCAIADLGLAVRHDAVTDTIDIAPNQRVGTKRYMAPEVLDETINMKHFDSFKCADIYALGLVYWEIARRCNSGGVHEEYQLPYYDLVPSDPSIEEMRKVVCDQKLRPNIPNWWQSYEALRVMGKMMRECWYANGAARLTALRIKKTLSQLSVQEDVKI
ABL1-phosphorylated, sequence (P00519 whole entry): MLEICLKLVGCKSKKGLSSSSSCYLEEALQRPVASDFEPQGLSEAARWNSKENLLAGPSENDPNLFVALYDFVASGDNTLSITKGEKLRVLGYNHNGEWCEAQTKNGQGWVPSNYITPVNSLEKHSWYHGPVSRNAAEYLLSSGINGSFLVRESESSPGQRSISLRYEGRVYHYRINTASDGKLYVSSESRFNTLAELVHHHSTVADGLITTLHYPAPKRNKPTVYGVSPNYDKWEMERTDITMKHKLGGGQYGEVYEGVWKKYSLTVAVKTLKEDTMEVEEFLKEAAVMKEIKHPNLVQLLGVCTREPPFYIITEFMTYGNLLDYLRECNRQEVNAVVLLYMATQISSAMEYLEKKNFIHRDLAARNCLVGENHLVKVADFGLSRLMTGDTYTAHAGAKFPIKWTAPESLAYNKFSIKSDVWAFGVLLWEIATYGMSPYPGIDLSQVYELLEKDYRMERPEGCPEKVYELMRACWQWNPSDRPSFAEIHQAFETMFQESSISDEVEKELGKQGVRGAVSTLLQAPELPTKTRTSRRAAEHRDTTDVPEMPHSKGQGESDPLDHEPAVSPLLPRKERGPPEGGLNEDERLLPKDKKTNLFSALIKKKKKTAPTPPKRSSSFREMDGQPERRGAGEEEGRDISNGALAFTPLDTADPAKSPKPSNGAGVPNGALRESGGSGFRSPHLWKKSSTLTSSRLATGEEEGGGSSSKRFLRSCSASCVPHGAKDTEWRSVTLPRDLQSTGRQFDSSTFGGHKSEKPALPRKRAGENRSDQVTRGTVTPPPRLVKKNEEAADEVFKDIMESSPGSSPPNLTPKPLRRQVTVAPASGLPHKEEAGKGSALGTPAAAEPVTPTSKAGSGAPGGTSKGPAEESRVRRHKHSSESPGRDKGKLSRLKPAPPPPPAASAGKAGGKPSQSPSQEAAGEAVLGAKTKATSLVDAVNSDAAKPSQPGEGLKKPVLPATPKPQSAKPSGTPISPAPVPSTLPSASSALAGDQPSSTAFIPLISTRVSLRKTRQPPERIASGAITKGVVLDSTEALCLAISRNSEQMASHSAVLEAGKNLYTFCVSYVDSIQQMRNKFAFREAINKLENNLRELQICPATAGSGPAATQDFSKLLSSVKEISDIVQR

## C=C1CCCCCCCCCC(CO)C1=O (centres unmarked) [EP009, 2-(Hydroxymethyl)-12-methylenecyclododecanone]
KIT(V559D, T670I)
  Kinase Activity (% of Control): 94 % of Control
ABL1-phosphorylated
  Kinase Activity (% of Control): 100 % of Control
[1]
  stability in mouse plasma: stable and readily detected
HEK293
  effect on HEK293 cell viability: no detectable loss of cell viability
ACVR1B
  Kinase Activity (% of Control): 96 % of Control
